Data as given in ChEMBL document CHEMBL1147701, “Novel 4-anilinoquinazolines with C-6 carbon-linked side chains: synthesis and structure-activity relationship of a series of potent, orally active, EGF receptor tyrosine kinase inhibitors” (Bioorg Med Chem Lett, 2006).
Values after ≈ are worked out from the molar mass of the structure shown.

What was measured:
[1] = biological target: Mitogen-activated protein kinase 1 (Homo sapiens, UniProt P28482); test: Inhibition of MAPK
[2] = biological target: Vascular endothelial growth factor receptor 2 (Homo sapiens, UniProt P35968)
[3] = Dissociation constant, pKa of the compound; type: physicochemical
[4] = Volume of distribution in rat; type: ADME, organism-based; conditions: in vivo, read-out: Vdss
[5] = biological target: cAMP-dependent protein kinase (PKA) (Homo sapiens, UniProt P22694+P17612+P22612); test: Inhibition of PKA; type: protein assay
[6] = biological target: T1, Serine/threonine-protein kinase Chk1 (Homo sapiens, UniProt O14757); test: Inhibition of CHK1
T1 sequence (O14757 whole entry): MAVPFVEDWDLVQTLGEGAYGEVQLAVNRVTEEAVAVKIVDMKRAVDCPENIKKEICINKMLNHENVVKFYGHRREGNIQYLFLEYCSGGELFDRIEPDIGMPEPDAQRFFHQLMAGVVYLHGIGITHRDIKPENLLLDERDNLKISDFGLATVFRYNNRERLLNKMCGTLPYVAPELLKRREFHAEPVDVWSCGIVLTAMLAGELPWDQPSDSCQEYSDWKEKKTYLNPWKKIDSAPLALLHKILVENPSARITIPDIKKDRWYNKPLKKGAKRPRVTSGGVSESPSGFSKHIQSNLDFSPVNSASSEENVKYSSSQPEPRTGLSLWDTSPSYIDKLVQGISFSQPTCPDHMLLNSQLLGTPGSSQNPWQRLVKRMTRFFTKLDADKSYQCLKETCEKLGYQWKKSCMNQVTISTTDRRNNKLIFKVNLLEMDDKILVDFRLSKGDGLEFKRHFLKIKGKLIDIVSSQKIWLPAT

[7] = Clearance in rat; type: ADME, organism-based; conditions: in vivo
[8] = biological target: MAP kinase p38 (Homo sapiens, UniProt O15264+Q15759+Q16539+P53778)
[9] = biological target: c-Jun N-terminal kinase, JNK (Homo sapiens, UniProt P45983+P53779+P45984); test: Inhibition of JNK; type: protein assay
[10] = biological target: Tyrosine-protein kinase Lck (Homo sapiens, UniProt P06239)
[11] = biological target: Rho-associated protein kinase 2 (Homo sapiens, UniProt O75116); test: Inhibition of ROCK2
[12] = biological target: Glycogen synthase kinase-3 beta (Homo sapiens, UniProt P49841); test: Inhibition of GSK3-beta
[13] = biological target: Proto-oncogene tyrosine-protein kinase Src (Homo sapiens, UniProt P12931); test: Inhibition of Src
[14] = biological target: AMP-activated protein kinase, AMPK; test: Inhibition of AMPK; type: protein-complex assay
[15] = biological target: T2, Serine/threonine-protein kinase Sgk1 (Homo sapiens, UniProt O00141); test: Inhibition of SGK
T2 sequence (O00141 whole entry): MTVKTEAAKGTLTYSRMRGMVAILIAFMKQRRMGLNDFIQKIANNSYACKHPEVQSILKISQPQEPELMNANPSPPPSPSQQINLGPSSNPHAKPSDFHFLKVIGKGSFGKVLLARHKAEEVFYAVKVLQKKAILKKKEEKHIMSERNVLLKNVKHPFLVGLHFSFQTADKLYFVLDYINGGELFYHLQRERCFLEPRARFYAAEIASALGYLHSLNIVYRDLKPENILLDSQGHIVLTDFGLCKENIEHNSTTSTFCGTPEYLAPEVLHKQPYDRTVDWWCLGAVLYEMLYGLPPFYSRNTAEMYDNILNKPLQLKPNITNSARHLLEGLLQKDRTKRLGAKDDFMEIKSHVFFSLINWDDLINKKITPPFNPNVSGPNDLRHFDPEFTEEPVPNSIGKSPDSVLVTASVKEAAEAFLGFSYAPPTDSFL

[16] = Bioavailability in rat; type: ADME, organism-based; conditions: in vivo
[17] = Inhibition of CDK
[18] = Half life in rat at 5 mg/kg, po and 2 mg/kg, iv; type: ADME, organism-based; conditions: in vivo
[19] = Clearance in dog at 2 mg/kg, po and 1 mg/kg, iv; type: ADME, organism-based, Canis lupus familiaris; conditions: in vivo
[20] = Half life in dog at 2 mg/kg, po and 1 mg/kg, iv; type: ADME, organism-based, Canis lupus familiaris; conditions: in vivo
[21] = Bioavailability in dog at 2 mg/kg, po and 1 mg/kg, iv; type: ADME, organism-based, Canis lupus familiaris; conditions: in vivo
[22] = Bioavailability in rat at 5 mg/kg, po and 2 mg/kg, iv; type: ADME, organism-based; conditions: in vivo
[23] = Solubility in phosphate buffer at pH 7.4; type: physicochemical
[24] = Percent of unbound drug in rat plasma; type: ADME, organism-based
[25] = Clearance in rat at 5 mg/kg, po and 2 mg/kg, iv; type: ADME, organism-based; conditions: in vivo
[26] = Percent of unbound drug in human plasma; type: ADME, organism-based
[27] = Volume of distribution in dog at 2 mg/kg, po and 1 mg/kg, iv; type: ADME, organism-based, Canis lupus familiaris; conditions: in vivo, read-out: Vdss
[28] = Distribution coefficient, logD of the compound; type: physicochemical; conditions: octanol/water
[29] = Volume of distribution in rat at 5 mg/kg, po and 2 mg/kg, iv; type: ADME, organism-based; conditions: in vivo, read-out: Vdss
[30] = Apparent permeability from apical to basolateral side of the Caco-2 cell; type: ADME, cell-based; conditions: human, read-out: permeability
[31] = Percent of unbound drug in dog plasma; type: ADME, organism-based, Canis lupus familiaris
[32] = Inhibition of P450; type: ADME
[33] = tested on: LoVo; test: Antitumor activity against human LoVo cell line xenografted in athymic mouse at 25 mg/kg/day after 18 days; type: functional; conditions: 432 h
[34] = tested on: LoVo; test: Antitumor activity against human LoVo cell line xenografted in athymic mouse at 50 mg/kg/day after 13 days; type: functional; conditions: 312 h

Vascular endothelial growth factor receptor 2, sequence (P35968 whole entry): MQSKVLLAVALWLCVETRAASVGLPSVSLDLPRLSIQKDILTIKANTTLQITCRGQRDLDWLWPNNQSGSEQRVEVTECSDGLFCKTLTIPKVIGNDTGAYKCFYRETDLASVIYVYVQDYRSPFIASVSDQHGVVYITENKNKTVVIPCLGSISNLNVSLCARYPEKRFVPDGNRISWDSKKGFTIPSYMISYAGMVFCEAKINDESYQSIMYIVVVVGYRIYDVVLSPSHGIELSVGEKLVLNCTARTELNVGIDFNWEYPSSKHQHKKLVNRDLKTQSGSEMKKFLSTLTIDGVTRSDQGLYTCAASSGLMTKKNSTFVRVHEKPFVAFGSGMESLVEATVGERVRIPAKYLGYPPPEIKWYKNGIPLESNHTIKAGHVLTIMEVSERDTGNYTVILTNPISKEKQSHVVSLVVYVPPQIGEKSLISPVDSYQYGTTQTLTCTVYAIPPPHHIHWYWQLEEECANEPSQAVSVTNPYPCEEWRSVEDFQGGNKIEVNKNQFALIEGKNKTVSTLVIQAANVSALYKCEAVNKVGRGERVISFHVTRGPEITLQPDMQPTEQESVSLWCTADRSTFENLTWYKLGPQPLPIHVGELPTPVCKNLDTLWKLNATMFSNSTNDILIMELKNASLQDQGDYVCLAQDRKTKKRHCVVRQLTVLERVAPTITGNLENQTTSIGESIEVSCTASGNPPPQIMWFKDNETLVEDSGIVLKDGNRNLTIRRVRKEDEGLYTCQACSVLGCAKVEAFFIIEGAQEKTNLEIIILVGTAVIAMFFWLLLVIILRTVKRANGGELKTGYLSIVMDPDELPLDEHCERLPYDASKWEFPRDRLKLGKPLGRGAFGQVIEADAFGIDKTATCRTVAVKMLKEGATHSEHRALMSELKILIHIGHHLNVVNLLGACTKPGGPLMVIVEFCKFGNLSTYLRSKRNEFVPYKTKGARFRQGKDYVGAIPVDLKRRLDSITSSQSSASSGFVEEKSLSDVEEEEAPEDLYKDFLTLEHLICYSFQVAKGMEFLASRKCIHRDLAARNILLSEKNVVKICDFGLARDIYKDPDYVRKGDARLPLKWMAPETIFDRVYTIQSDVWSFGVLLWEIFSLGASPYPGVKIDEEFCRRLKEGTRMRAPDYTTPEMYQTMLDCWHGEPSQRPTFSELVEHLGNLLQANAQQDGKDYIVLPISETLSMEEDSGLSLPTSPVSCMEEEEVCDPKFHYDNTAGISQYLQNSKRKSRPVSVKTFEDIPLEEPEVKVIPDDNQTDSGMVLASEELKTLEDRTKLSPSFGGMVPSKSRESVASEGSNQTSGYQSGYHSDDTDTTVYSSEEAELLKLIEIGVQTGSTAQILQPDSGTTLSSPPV
Tyrosine-protein kinase Lck, sequence (P06239 whole entry): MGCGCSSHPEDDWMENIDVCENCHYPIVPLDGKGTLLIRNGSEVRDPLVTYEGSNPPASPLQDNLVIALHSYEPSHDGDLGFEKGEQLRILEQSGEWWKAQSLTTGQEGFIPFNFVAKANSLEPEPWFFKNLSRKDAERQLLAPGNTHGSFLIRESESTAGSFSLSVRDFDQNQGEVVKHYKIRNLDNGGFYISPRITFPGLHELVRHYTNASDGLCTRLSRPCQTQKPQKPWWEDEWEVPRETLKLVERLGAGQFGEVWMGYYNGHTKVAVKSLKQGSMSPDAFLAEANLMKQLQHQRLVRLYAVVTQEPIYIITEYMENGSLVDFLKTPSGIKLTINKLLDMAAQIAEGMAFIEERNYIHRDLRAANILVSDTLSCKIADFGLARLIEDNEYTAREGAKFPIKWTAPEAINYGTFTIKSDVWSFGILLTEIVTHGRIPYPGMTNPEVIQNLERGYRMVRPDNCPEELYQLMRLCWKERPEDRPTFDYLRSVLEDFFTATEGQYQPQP
Proto-oncogene tyrosine-protein kinase Src, sequence (P12931 2-536 limits assumed): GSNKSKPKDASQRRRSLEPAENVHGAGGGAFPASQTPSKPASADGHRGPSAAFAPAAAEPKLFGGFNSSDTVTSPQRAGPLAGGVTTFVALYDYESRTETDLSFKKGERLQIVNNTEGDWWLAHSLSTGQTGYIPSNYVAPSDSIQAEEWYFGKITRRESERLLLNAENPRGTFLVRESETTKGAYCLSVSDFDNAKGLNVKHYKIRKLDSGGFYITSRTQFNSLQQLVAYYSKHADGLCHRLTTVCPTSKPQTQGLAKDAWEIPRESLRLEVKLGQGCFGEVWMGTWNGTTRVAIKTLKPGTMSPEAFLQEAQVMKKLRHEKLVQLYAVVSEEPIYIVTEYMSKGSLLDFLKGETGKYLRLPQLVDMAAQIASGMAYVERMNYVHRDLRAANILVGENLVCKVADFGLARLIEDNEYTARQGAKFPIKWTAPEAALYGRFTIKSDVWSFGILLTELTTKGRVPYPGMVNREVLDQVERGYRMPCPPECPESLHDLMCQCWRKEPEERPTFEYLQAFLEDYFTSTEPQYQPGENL
Mitogen-activated protein kinase 1, sequence (P28482 whole entry): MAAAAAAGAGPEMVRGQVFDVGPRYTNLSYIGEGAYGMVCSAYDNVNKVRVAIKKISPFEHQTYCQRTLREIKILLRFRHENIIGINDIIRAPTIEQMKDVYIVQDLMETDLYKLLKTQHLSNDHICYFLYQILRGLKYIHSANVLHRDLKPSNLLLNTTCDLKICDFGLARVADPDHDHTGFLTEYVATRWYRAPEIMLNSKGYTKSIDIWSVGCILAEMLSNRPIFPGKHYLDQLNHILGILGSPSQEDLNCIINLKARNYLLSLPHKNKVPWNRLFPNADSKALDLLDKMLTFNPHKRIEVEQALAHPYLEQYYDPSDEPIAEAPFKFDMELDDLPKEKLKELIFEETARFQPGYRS
Rho-associated protein kinase 2, sequence (O75116 whole entry): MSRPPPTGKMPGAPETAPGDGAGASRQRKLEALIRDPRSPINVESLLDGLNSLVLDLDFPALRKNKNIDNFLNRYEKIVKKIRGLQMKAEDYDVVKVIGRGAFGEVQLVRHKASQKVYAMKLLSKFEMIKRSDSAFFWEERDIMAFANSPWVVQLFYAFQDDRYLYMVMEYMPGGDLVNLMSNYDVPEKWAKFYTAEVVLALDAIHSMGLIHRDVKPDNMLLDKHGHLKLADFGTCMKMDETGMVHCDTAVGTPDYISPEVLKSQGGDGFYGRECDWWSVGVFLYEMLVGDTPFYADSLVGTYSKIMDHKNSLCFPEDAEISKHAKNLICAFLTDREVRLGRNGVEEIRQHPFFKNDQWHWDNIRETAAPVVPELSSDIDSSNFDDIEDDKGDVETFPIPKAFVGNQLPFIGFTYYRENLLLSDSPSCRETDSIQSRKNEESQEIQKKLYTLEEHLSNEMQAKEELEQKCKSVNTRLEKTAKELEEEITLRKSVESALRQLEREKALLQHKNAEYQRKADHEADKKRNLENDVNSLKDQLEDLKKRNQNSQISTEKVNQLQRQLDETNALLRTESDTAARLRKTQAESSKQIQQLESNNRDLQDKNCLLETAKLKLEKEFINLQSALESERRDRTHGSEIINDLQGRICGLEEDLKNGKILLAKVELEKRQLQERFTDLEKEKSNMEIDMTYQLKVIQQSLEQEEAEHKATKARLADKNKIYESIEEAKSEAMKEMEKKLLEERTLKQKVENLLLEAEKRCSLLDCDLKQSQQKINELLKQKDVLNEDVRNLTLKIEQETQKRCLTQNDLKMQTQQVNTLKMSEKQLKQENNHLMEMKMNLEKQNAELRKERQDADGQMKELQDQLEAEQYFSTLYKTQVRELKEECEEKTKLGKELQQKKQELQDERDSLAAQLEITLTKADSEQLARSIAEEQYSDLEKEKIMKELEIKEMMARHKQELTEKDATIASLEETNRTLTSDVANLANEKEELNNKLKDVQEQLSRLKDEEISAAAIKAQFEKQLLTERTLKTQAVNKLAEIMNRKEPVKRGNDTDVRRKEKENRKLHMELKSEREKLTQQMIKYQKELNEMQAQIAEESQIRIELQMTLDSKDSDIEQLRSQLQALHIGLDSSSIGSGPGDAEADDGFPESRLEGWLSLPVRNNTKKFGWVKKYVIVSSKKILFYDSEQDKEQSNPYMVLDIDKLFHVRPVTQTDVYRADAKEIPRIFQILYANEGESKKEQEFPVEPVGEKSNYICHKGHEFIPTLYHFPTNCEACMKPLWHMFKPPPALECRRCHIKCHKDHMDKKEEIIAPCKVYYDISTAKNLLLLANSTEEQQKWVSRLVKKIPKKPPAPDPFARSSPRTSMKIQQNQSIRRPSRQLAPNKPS
Glycogen synthase kinase-3 beta, sequence (P49841 whole entry): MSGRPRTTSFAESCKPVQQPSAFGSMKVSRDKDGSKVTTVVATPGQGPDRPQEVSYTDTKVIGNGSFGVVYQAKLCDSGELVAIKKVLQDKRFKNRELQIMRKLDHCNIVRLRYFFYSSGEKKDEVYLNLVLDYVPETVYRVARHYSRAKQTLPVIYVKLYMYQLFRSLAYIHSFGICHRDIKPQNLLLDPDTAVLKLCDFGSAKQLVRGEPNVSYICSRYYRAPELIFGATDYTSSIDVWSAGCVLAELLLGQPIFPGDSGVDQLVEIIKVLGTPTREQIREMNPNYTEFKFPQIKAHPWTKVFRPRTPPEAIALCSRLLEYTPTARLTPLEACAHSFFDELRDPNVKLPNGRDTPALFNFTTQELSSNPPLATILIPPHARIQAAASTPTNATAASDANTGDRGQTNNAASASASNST

| Compound | IC50 [1] [µM] | IC50 [2] [µM] | pKa [3] | Vd [4] [L/kg] | IC50 [5] [µM] | IC50 [6] [µM] | clearance [7] [mL/min/kg] | IC50 [8] [µM] | IC50 [9] [µM] | IC50 [10] [µM] | IC50 [11] [µM] | IC50 [12] [µM] | IC50 [13] [µM] | IC50 [14] [µM] | IC50 [15] [µM] | bioavailability [16] [%] | IC50 [17] [µM] | half-life [18] [h] | bioavailability [22] [%] | solubility [23] [µM] | also measured |
| --- | --- | --- | --- | --- | --- | --- | --- | --- | --- | --- | --- | --- | --- | --- | --- | --- | --- | --- | --- | --- | --- |
| COc1cc2ncnc(Nc3cccc(Cl)c3F)c2cc1CN(C)C1(C(N)=O)CN(C)C1 | > 10 | > 10 | 7.9 | 9.4 | > 10 | > 10 | 55 | > 10 | > 10 | > 10 | > 10 | > 10 | > 10 | > 10 | > 10 | < 50 | > 10 | – | – | – | – |
| COCCN1CC(C(N)=O)(N(C)Cc2cc3c(Nc4cccc(Cl)c4F)ncnc3cc2OC)C1 | > 10 | > 10 | 7.1 | 4.2 | > 10 | > 10 | 35 | > 10 | > 10 | > 10 | > 10 | > 10 | > 10 | > 10 | > 10 | < 50 | > 10 | – | – | – | – |
| COc1cc2ncnc(Nc3cccc(Cl)c3F)c2cc1CN(C)C1(C(N)=O)CCN(C(C)C)CC1 | > 10 | > 10 | 9.1 | 4.9 | – | > 10 | 114 | – | > 10 | – | > 10 | > 10 | > 10 | > 10 | > 10 | < 50 | – | – | – | – | – |
| COc1cc2ncnc(Nc3cccc(Cl)c3F)c2cc1CN(C)C1(C(N)=O)CN(C(C)C)C1 | > 10 | > 10 | 7.8 | 7.2 | > 10 | > 10 | 61 | – | > 10 | > 10 | > 10 | > 10 | > 10 | > 10 | > 10 | < 50 | – | – | – | – | – |
| COc1cc2ncnc(Nc3cccc(Cl)c3F)c2cc1CN(C)C1(C(N)=O)CCN(C)CC1 | > 10 | > 10 | 8.3 | 7.5 | > 10 | > 10 | 55 | > 10 | > 10 | > 10 | > 10 | > 10 | > 10 | > 10 | > 10 | < 50 | > 10 | – | – | – | – |
| COc1cc2ncnc(Nc3cccc(Cl)c3F)c2cc1CN1CCC[C@H]1C(N)=O | > 10 | > 10 | – | – | > 10 | > 10 | – | – | > 10 | > 10 | > 10 | > 10 | > 10 | > 10 | > 10 | – | > 10 | 6.6 | 111 | 260 (≈ 112 µg/mL) | clearance [19]: 5 mL/min/kg; half-life [20]: 0.7 h; bioavailability [21]: 88%; fraction unbound [24]: 0.037; clearance [25]: 3 mL/min/kg; fraction unbound [26]: 0.05; Vd [27]: 0.4 L/kg; logD [28]: 3.6; Vd [29]: 0.7 L/kg; Papp A→B [30]: > 13 ×10⁻⁶ cm/s; fraction unbound [31]: 0.01; IC50 [32]: > 10 µM; inhibition in vivo at 25 mg/kg/day [33]: 43% |
| COc1cc2ncnc(Nc3cccc(Cl)c3F)c2cc1CN(C)[C@H](C)C(N)=O | > 10 | > 10 | 6.8 | – | > 10 | > 10 | – | > 10 | > 10 | > 10 | > 10 | > 10 | > 10 | > 10 | > 10 | – | > 10 | 4.3 | 58 | 40 (≈ 16.7 µg/mL) | fraction unbound [24]: 0.06; clearance [25]: 6 mL/min/kg; fraction unbound [26]: 0.05; logD [28]: 3.4; Vd [29]: 0.6 L/kg; Papp A→B [30]: > 13 ×10⁻⁶ cm/s; fraction unbound [31]: 0.01; IC50 [32]: > 10 µM; inhibition in vivo at 25 mg/kg/day [33]: 37% |
| COc1cc2ncnc(Nc3cccc(Cl)c3F)c2cc1CN(C(C)C)[C@@H](C)C(N)=O | > 10 | > 10 | – | – | > 10 | > 10 | – | – | > 10 | – | > 10 | > 10 | > 10 | > 10 | > 10 | – | – | – | – | 1 (≈ 0.446 µg/mL) | – |
| COc1cc2ncnc(Nc3cccc(Cl)c3F)c2cc1CN(C)[C@@H](C)C(N)=O | > 10 | > 10 | – | – | > 10 | > 10 | – | > 10 | > 10 | > 10 | > 10 | > 10 | > 10 | > 10 | > 10 | – | > 10 | 4.8 | 75 | 40 (≈ 16.7 µg/mL) | clearance [19]: 14 mL/min/kg; half-life [20]: 0.4 h; bioavailability [21]: 63%; fraction unbound [24]: 0.065; clearance [25]: 12 mL/min/kg; fraction unbound [26]: 0.05; Vd [27]: 0.4 L/kg; logD [28]: 3.4; Vd [29]: 0.8 L/kg; Papp A→B [30]: > 13 ×10⁻⁶ cm/s; fraction unbound [31]: 0.01; IC50 [32]: > 10 µM; inhibition in vivo at 50 mg/kg/day [34]: 60% |
| CNC(=O)[C@@H](C)N(C)Cc1cc2c(Nc3cccc(Cl)c3F)ncnc2cc1OC | > 10 | > 10 | – | – | > 10 | > 10 | – | > 10 | > 10 | > 10 | > 10 | > 10 | > 10 | > 10 | > 10 | – | > 10 | – | – | – | – |
